From a melting point compilation (Tetko et al.; mined from patent text by program, amines drawn as free bases though some values may be those of a salt)

| melting point | Structure (SMILES) |
| --- | --- |
| 157 to 159 °C | Nc1ccc2oc(-c3cccc(O)c3)cc(=O)c2c1 |
| 62 to 67 °C | Cc1cc(F)ccc1-c1ccc(S(=O)(=O)N2c3ccccc3CC2C(=O)O)cc1 (stereo unspecified) |
| 223 to 224 °C | CCn1ncc2c(NCC3CCCCC3)c3cc(O)ccc3nc21 |
| 58 to 60 °C | CN(C)CCc1c(CSc2ccccc2)c2ccccc2n1C |
| 240 to 242 °C | CCCNC(=O)C=Cc1ccc2ccn(Cc3ccc(C(=O)NS(=O)(=O)c4ccccc4C)cc3OC)c2c1 |
| 110 to 115 °C | CCN1CCCC1CNC(=O)c1cc(S(N)(=O)=O)c(OC)c2c1OCCO2 (stereo unspecified) |
| 242 to 246 °C | O=C(CNc1ccc(F)cc1)Nc1c(Cl)ccc2nc(N3CC[C@@H](O)C3)ccc12 |
| 185 to 186 °C | CC(=O)Oc1cc2ccccc2cc1C(=O)O |
| 109 to 110 °C | COC(=O)[C@@]1(O)C[C@@H](OC(=O)c2ccccc2)[C@@H]2OC(C)(C)O[C@@H]2C1 |
| 73 °C | CC1CCCC(C)(C)C1CS(=O)(=O)c1ccccc1 (stereo unspecified) |
| 62 to 63 °C | CC(C)c1nc(CCN(C)C(=O)N[C@H](C(=O)N[C@@H](Cc2ccccc2)C[C@H](O)[C@H](Cc2ccccc2)NC(=O)OCc2cncs2)C(C)C)cs1 |
| 124 to 126 °C | CCOC(=O)c1c(N2CCN(Cc3ccccc3)CC2)n[nH]c1C |
| 152 to 154 °C | COc1ccccc1-n1c(-c2cc(-c3ccccc3)c(N3CCOCC3)s2)nc2ccccc2c1=O |
| 148 °C | COC(=O)c1ccc2cc(-c3ccc(C(C)(C)C)cc3)oc2c1 |
| 322 to 323 °C | O=c1[nH]c(-c2ccc(F)cc2)nc2ccc(CN3CCOCC3)cc12 |
| 53 to 54 °C | Cc1c(C)c2c(c(C)c1N)CC(C)(CN1CCC(OCCCc3ccccc3)CC1)O2 (stereo unspecified) |
| 130 to 131 °C | CCOC(=O)COc1cccc(-n2nc(-c3ccc(F)cc3)c3cccnc32)c1 |
| 220 to 222 °C | O=C(CN1CCC(Cc2ccccc2)CC1)Nc1ccc2c(c1)NC(=O)CO2 |
| 82 to 83 °C | Cc1cc([N+](=O)[O-])ccc1OC1CCN(C(=O)OC(C)(C)C)CC1 |
| 103 to 105 °C | CC(=NO)C1=CCCN(Cc2ccccc2)C1 |
| 150 °C | O=C1c2ccccc2C2C(c3ccccc31)C2(F)F (stereo unspecified) |
| 150 to 152 °C | Clc1cccc2c1CNC(=Nc1ccccc1)CS2 |
| 139 to 140 °C | N#CN=c1ccccn1Cc1ccccc1 |
| 85.5 to 87.5 °C | COC(=O)COc1ccc(NC(=O)OCCO)cc1 |
| 139 to 140 °C | Fc1cccc2c(OCCc3ccc(Cl)cc3)ccnc12 |
| 123 to 124 °C | CNCC1Cc2cc(F)cc(-c3ccccc3C)c2O1 (stereo unspecified) |

| melting point | Structure (SMILES) |
| --- | --- |
| 244 to 245 °C | Clc1ccc(-c2nc[nH]c2-c2cccs2)cc1 |
| 139 to 140 °C | CNN1c2cc(Cl)cc(Cl)c2[C@@H](C(=O)Nc2ccccc2)C[C@@H]1C(=O)O (relative stereo) |
| 105 to 108 °C | COCc1ncc(-n2nc(C)cc2C)nc1Nc1ccc(Cl)cc1 |
| 213 to 215 °C | COc1cc(OC)c(-c2ccc(C)s2)cc1C=CC(=O)c1ccc(C(=O)O)cc1 |
| 94 to 96 °C | CCOC(=O)c1ccc2c(c1)C(=C1CCN(C)CC1)c1ccccc1C=C2 |
| 249 to 251 °C | O=C1CCCc2ccc(Nc3ncc(Cl)c(Nc4ccccc4S(=O)(=O)N4CCCC4)n3)cc2N1 |
| 143 to 146 °C | Nc1nc(NC2CCc3ccccc32)c2ncn(C3OC(CO)C(O)C3O)c2n1 (stereo unspecified) |
| 104 to 105 °C | COc1ccc(C2=NN(CCCCCCN3C(=O)c4ccccc4C3=O)C(=O)[C@H]3CC=CC[C@@H]23)cc1OC (relative stereo) |
| 137 to 139 °C | COc1ccc(C2=NN(C3CCN(C(=O)CCSCCN)CC3)C(=O)[C@@H]3CC=CC[C@H]23)cc1OC |
| 213 to 214 °C | O=C1Nc2cccc(-c3cccs3)c2/C1=C/c1ccc[nH]1 |
| 78 to 80 °C | CC1(C)CC(N(CCO)S(C)(=O)=O)c2cc(OCc3ccccc3)ccc2O1 (stereo unspecified) |
| 234 to 236 °C | CC(=O)Oc1ccc(-n2cc(C(=O)OC3CCc4ccccc43)c(=O)cc2-c2cc3ccccc3s2)cc1 (stereo unspecified) |
| 149 to 151 °C | CCc1nc2c(C)cc(C)nc2n1Cc1ccc(C(=C(Br)c2nnn[nH]2)c2ccccc2)cc1 |
| 111 to 112 °C | COc1ccc(C(=O)NCc2ccc(OCCN(C)C)cc2)cc1OC |
| 118 to 119 °C | Cc1nc(-c2ccccc2)n(-c2ccc(S(C)(=O)=O)cc2)n1 |
| 80 to 82 °C | COC(=O)C(C#N)c1cccc2ccc(OC)cc12 (stereo unspecified) |
| 222 °C | COC1(N)C=CC(C(=O)c2cnc(Nc3ccccc3)s2)=CC1 (stereo unspecified) |
| 279 to 280 °C | Cc1[nH]c2ccccc2c1[C@H]1CC[C@@H](N2CCN(c3cccc4[nH]ccc34)CC2)CC1 |
| 230 to 233 °C | COC(=O)c1[nH]c2ccc(C)cc2c1Sc1ccc(Cl)cc1 |
| 160 to 165 °C | Cn1cc(C2=C(c3c4n(c5ccccc35)CC(CN)CC4)C(=O)NC2=O)c2ccccc21 (stereo unspecified) |
| 162 to 163 °C | Cc1ccc(CN2CCN(CCCOc3ccc4[nH]c(=O)cc(C)c4c3)CC2)cc1 |
| 170 to 172 °C | N=C(Nc1ccc(Cl)cc1)Nc1ncccc1OCc1ccccc1 |
| 40 to 42 °C | Nc1cc(Br)ccc1-c1ccccc1F |
| 110 to 112 °C | OC1C(COC2CC2)OC(n2cnc3c(NCc4cccc(I)c4)ncnc32)C1O (stereo unspecified) |
| 83 to 84 °C | O=C(O)CCCC(=O)NCc1ccccc1 |

The next lines start with the compound.

| Structure (SMILES) | melting point |
| --- | --- |
| O=C(NCc1ccc(Cl)cc1)c1cnc2c(F)cc(C#CCCO)cc2c1O | 253 to 255 °C |
| CCCCCCCCCCCCc1cc(N)no1 | 79.5 to 81 °C |
| O=C(O)c1cc(NCc2c(F)c(F)c(C(F)(F)F)c(F)c2F)ccc1[N+](=O)[O-] | 121 °C |
| Cc1ccc2[nH]ncc2c1NCCN | 153 to 155 °C |
| CC(C)(C)c1ccc2c(C#N)ccc(C#N)c2c1 | 58 to 59 °C |
| CCOC(=O)c1c(Cl)nc2cc(Cl)c(F)cc2c1CCl | > 250 °C |
| Fc1ccc(/C=C/c2cc(F)cc(F)c2)cc1 | 47 °C |
| CC(=O)NCC1CN=C(c2ccccc2F)c2cc(Cl)ccc2N1C(C)=O (stereo unspecified) | 213 to 215 °C |
| CC1(C)C(=O)Nc2cc3[nH]c(-c4ccco4)nc3cc21 | 311 to 316 °C |
| COCc1nnc(-c2ccc3occ(-c4cccc(OC(F)(F)F)c4)c3c2)o1 | 90 to 91 °C |
| COc1cc(-c2nc(-n3nccn3)c3c(C)c(C#N)sc3n2)cc(OC)c1OC | 208 to 210 °C |
| CSC(SC)=C(C#N)C(=O)N1CCOCC1 | 55 to 57 °C |
| COC(=O)C1=C(C)NC(C)=C(C(=O)OCCCCl)C1c1cccc([N+](=O)[O-])c1 (stereo unspecified) | 125 to 130 °C |
| CCOC(=O)C1=Cc2cc(Cl)cc(C=NO)c2OC1C(F)(F)F (stereo unspecified) | 187 to 188 °C |
| CCc1cccc(CC)c1NCC(=O)NC(=S)NNC | 166 °C |
| CS(=O)(=O)Nc1cccc(Br)n1 | 90 to 94 °C |
| N#Cc1c(Cl)cccc1SSc1ccc([N+](=O)[O-])cc1C(Cl)(Cl)Cl | 137 °C |
| C=CCc1c(-c2cc(=O)c3c(O)c(CC=C)c(O)c(CC=C)c3o2)ccc(OC)c1O | 122 to 123 °C |
| CC(=O)CN1C(=O)C(NC(=O)Nc2cccc(-c3nnn[nH]3)c2)N=C(c2ccccc2F)c2cccc(C)c21 (stereo unspecified) | 174 to 190 °C |
| C/C(=C/C#N)c1ccc2c(c1)C(C)(C)OC(=O)N2 | 213 to 215 °C |
| N#Cc1ccc2[nH]cc(-c3nc(-c4cccnc4)cs3)c2c1 | 240 °C |
| CCOC(=O)C(Cc1cc(OC)c(OC)cc1OC)C(=O)OCC | 50 to 51 °C |
| O=C(NCCCC(F)(F)F)c1nc(-c2ccc(Cl)cc2Cl)c(-c2ccc(Cl)cc2)s1 | 99 to 101 °C |
| O=C(CO)c1ccccc1F | 51 to 54 °C |
| CSc1nc(N)nc2c1ncn2C1C=CC(CO)C1 (stereo unspecified) | 152 to 154 °C |

| Structure (SMILES) | melting point |
| --- | --- |
| Cn1c(=O)c2cc([N+](=O)[O-])cnc2n(C)c1=O | 203 to 205 °C |
| CC(CS)C(=O)NC(CCCNC(=N)N)C(=O)O (stereo unspecified) | 100 °C |
| CC(C)c1nn(-c2ccc([N+](=O)[O-])cn2)cc1CCCO | 130 to 131 °C |
| COc1ccc(-c2cc(=Nc3c(C)cc(C)cc3C)n(C)c(=O)n2CC(=O)O)cc1OC | 148 to 150 °C |
| CCOC(=O)c1oc2cccc(OC)c2c1C | 67 to 69 °C |
| C/C=C\Cn1c(Oc2cc(C)cc(C)c2)c(C(C)C)c(=O)[nH]c1=O | 141 to 142 °C |
| COc1c(C)c(C)c(OC)c(C(O)(c2ccccn2)C(C)C)c1C (stereo unspecified) | 99 to 100 °C |
| COc1cccc2c1nc(-c1c(F)cccc1F)n2CC=C(C)C | 101 to 103 °C |
| O=C(Sc1ccc(O)cc1)c1ccc(CSc2ccc(O)cc2)cc1 | 202 to 209 °C |
| CCc1noc(-c2cn(-c3cccc(O)c3)cn2)n1 | 214 to 215 °C |
| Cc1c(S(=O)(=O)Nc2ccc(-c3nc(C(=O)O)co3)cc2S(C)(=O)=O)sc2ccc(F)cc12 | 289 to 291 °C |
| CC(C)(C)C(F)(F)c1ccc(C[C@@H](NC(=O)c2cccc3c(Cl)cccc23)[C@@H](O)c2cccc(Cl)c2)cc1 (racemic) | 99 to 101 °C |
| CCOC(=O)c1cn(C2CC2)c2nc3cc(Cl)c(F)cc3cc2c1=O | 256 °C |
| CC(C)(C)c1ccc(SN2CCOC2=O)cc1 | 76 to 81 °C |
| NCCOC(=C1C2CC3CC(C2)CC1C3)c1cccc(O)c1 | 55 °C |
| Cn1nc2nnsc2c1C#N | 111 to 114 °C |
| CSc1c(C(=O)O)ccc(F)c1F | 149 to 150 °C |
| COCCCc1ccc(C#CC2(O)CN3CCC2CC3)cc1 (stereo unspecified) | 145 °C |
| CCOc1cncc(N2CCN3CCCC3C2)n1 (stereo unspecified) | 101 to 102 °C |
| CCCCCCC(N)(c1ccccc1)C(C)(C)O (stereo unspecified) | 64.5 to 65.5 °C |
| N#CCc1ccc(OCc2ccccc2)c(OCc2ccccc2)c1CCc1cccc(OCc2ccccc2)c1 | 90 °C |
| COc1cc2ncc(C#N)c(Nc3cccnc3)c2cc1OC | 231 to 233 °C |
| COc1ccccc1Oc1c(Cl)nc(-c2cccs2)nc1Cl | 118 to 120 °C |
| Nc1c([N+](=O)[O-])cc(O)cc1[N+](=O)[O-] | 230 °C |
| O=[N+]([O-])C(CSc1cccc(Cl)c1)=C1NCCN1Cc1ccc(Cl)nc1 | 143 °C |
